What was measured:
[1] = target: T1, TAO3 (Homo sapiens, UniProt Q9H2K8); test: Millipore kinase panel; format: biochemical; conditions: read-out: % Control
T1 construct: purchased Millipore KinaseProfiler (kinases); Cerep (receptors and ion channels)

[2] = test system: KV channel; test: CEREP binding panel; conditions: 10 μM, antagonist radioligand
[3] = target: T2, BRSK2 (Homo sapiens, UniProt Q8IWQ3); test: Millipore kinase panel; format: biochemical; conditions: read-out: % Control
T2 construct: purchased Millipore KinaseProfiler (kinases); Cerep (receptors and ion channels)
T2 sequence (Q8IWQ3 whole entry): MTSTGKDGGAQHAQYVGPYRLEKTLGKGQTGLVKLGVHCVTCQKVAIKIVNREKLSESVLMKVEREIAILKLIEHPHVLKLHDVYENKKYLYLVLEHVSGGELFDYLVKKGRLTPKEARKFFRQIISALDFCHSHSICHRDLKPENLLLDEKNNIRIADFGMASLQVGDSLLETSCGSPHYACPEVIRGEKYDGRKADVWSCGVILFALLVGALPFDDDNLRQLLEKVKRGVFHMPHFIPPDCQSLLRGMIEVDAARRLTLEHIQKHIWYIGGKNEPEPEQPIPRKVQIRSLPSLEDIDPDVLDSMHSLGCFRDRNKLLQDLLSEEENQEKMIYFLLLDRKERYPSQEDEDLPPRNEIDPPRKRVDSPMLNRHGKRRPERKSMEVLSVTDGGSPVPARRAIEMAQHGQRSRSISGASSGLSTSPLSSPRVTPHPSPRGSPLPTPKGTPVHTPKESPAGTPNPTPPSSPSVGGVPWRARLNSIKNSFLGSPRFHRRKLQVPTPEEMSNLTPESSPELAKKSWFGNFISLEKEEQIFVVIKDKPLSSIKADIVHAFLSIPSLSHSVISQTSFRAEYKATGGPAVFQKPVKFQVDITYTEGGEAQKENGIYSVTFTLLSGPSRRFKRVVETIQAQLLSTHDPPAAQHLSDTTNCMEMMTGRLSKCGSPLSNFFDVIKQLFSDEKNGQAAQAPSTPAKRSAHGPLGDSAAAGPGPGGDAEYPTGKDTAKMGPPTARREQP

[4] = target: T3, NK3 (h) (Homo sapiens, UniProt P29371); test: CEREP binding panel; conditions: antagonist radioligand, read-out: % Inhibition of Control Specific Binding
T3 construct: purchased Millipore KinaseProfiler (kinases); Cerep (receptors and ion channels)

[5] = target: T4, IKKALPHA (Homo sapiens, UniProt O15111); test: Millipore kinase panel; format: biochemical; conditions: read-out: % Control
T4 construct: purchased Millipore KinaseProfiler (kinases); Cerep (receptors and ion channels)

[6] = target: T5, ABL (Homo sapiens, UniProt P00519); test: Millipore kinase panel; format: biochemical; conditions: read-out: % Control
T5 construct: purchased Millipore KinaseProfiler (kinases); Cerep (receptors and ion channels)

[7] = target: T6, PAR-1BALPHA (Homo sapiens, UniProt Q7KZI7); test: Millipore kinase panel; format: biochemical; conditions: read-out: % Control
T6 construct: purchased Millipore KinaseProfiler (kinases); Cerep (receptors and ion channels)

[8] = target: T7, SNK (Homo sapiens, UniProt Q9NYY3); test: Millipore kinase panel; format: biochemical; conditions: read-out: % Control
T7 construct: purchased Millipore KinaseProfiler (kinases); Cerep (receptors and ion channels)

[9] = test system: α1 (non-selective); test: CEREP binding panel; conditions: 10 μM, antagonist radioligand
[10] = target: T8, JAK2 (Homo sapiens, UniProt O60674); test: Millipore kinase panel; format: biochemical; conditions: read-out: % Control
T8 construct: purchased Millipore KinaseProfiler (kinases); Cerep (receptors and ion channels)

[11] = target: T9, 5-HT3 (h) (Homo sapiens, UniProt P46098); test: CEREP binding panel; conditions: antagonist radioligand, read-out: % Inhibition of Control Specific Binding
T9 construct: purchased Millipore KinaseProfiler (kinases); Cerep (receptors and ion channels)

[12] = target: T10, B2 (h) (Homo sapiens, UniProt P30411); test: CEREP binding panel; conditions: agonist radioligand, read-out: % Inhibition of Control Specific Binding
T10 construct: purchased Millipore KinaseProfiler (kinases); Cerep (receptors and ion channels)

[13] = target: T11, EPHB3 (Homo sapiens, UniProt P54753); test: Millipore kinase panel; format: biochemical; conditions: read-out: % Control
T11 construct: purchased Millipore KinaseProfiler (kinases); Cerep (receptors and ion channels)

[14] = target: T12, DAPK1 (Homo sapiens, UniProt P53355); test: Millipore kinase panel; format: biochemical; conditions: read-out: % Control
T12 construct: purchased Millipore KinaseProfiler (kinases); Cerep (receptors and ion channels)

[15] = target: T13, Y1 (h) (Homo sapiens, UniProt P25929); test: CEREP binding panel; conditions: agonist radioligand, read-out: % Inhibition of Control Specific Binding
T13 construct: purchased Millipore KinaseProfiler (kinases); Cerep (receptors and ion channels)

[16] = target: T14, CDK7/CYCLINH/MAT1 (Homo sapiens, UniProt P50613); test: Millipore kinase panel; format: biochemical; conditions: read-out: % Control
T14 construct: purchased Millipore KinaseProfiler (kinases); Cerep (receptors and ion channels)

[17] = target: T15, GRK7 (Homo sapiens, UniProt Q8WTQ7); test: Millipore kinase panel; format: biochemical; conditions: read-out: % Control
T15 construct: purchased Millipore KinaseProfiler (kinases); Cerep (receptors and ion channels)
T15 sequence (Q8WTQ7 whole entry): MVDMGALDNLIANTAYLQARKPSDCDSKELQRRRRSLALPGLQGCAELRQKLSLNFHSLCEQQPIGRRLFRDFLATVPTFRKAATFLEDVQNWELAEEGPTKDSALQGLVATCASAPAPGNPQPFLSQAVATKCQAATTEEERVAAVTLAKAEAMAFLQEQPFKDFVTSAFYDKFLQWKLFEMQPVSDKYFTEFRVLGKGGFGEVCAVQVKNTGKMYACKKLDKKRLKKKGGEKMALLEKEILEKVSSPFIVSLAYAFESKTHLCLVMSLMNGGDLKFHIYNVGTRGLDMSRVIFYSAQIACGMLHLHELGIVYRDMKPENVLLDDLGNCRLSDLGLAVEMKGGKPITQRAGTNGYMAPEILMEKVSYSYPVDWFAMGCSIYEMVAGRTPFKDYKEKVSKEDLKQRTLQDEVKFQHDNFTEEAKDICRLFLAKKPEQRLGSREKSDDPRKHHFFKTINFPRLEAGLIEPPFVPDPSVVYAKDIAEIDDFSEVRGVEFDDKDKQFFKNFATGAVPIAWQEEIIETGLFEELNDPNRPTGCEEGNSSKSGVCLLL

[18] = target: T16, ETA (h) (Homo sapiens, UniProt P25101); test: CEREP binding panel; conditions: agonist radioligand, read-out: % Inhibition of Control Specific Binding
T16 construct: purchased Millipore KinaseProfiler (kinases); Cerep (receptors and ion channels)

[19] = target: T17, PKA (Homo sapiens, UniProt P17612); test: Millipore kinase panel; format: biochemical; conditions: read-out: % Control
T17 construct: purchased Millipore KinaseProfiler (kinases); Cerep (receptors and ion channels)

[20] = target: T18, ALK4 (Homo sapiens, UniProt P36896); test: Millipore kinase panel; format: biochemical; conditions: read-out: % Control
T18 construct: purchased Millipore KinaseProfiler (kinases); Cerep (receptors and ion channels)
T18 sequence (P36896 24-505): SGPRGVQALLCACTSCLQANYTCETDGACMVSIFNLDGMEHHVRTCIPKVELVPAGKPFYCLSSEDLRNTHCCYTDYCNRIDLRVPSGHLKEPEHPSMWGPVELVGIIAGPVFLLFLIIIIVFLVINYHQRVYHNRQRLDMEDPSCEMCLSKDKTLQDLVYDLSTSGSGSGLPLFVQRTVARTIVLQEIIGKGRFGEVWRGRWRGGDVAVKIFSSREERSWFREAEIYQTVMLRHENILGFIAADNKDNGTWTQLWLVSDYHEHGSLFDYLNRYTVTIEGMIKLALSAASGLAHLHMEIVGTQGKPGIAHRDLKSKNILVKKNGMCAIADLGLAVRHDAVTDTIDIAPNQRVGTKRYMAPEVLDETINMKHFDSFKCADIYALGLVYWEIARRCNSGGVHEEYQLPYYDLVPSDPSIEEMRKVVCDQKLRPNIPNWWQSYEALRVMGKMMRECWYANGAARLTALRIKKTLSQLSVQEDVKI

[21] = target: T19, NLK (Homo sapiens, UniProt Q9UBE8); test: Millipore kinase panel; format: biochemical; conditions: read-out: % Control
T19 construct: purchased Millipore KinaseProfiler (kinases); Cerep (receptors and ion channels)

[22] = target: T20, CHK1 (Homo sapiens, UniProt O14757); test: Millipore kinase panel; format: biochemical; conditions: read-out: % Control
T20 construct: purchased Millipore KinaseProfiler (kinases); Cerep (receptors and ion channels)

[23] = target: T21, MUSK (Homo sapiens, UniProt O15146); test: Millipore kinase panel; format: biochemical; conditions: read-out: % Control
T21 construct: purchased Millipore KinaseProfiler (kinases); Cerep (receptors and ion channels)

[24] = target: T22, GAL2 (h) (Homo sapiens, UniProt O43603); test: CEREP binding panel; conditions: agonist radioligand, read-out: % Inhibition of Control Specific Binding
T22 construct: purchased Millipore KinaseProfiler (kinases); Cerep (receptors and ion channels)

[25] = target: T23, 5-HT1B (Rattus norvegicus, UniProt P28564); test: CEREP binding panel; conditions: antagonist radioligand, read-out: % Inhibition of Control Specific Binding
T23 construct: purchased Millipore KinaseProfiler (kinases); Cerep (receptors and ion channels)
T23 sequence (P28564 whole entry): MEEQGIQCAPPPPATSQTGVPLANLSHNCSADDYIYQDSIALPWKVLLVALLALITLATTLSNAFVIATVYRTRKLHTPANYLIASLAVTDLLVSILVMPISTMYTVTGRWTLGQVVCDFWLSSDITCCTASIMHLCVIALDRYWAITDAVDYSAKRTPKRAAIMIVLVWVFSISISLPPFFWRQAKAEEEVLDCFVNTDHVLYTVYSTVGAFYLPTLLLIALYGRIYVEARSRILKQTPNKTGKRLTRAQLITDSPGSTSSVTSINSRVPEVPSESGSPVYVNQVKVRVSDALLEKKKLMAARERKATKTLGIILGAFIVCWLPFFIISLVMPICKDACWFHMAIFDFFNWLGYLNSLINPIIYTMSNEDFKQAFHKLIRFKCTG

[26] = target: T24, EEF-2K (Homo sapiens, UniProt O00418); test: Millipore kinase panel; format: biochemical; conditions: read-out: % Control
T24 construct: purchased Millipore KinaseProfiler (kinases); Cerep (receptors and ion channels)
T24 sequence (O00418 whole entry): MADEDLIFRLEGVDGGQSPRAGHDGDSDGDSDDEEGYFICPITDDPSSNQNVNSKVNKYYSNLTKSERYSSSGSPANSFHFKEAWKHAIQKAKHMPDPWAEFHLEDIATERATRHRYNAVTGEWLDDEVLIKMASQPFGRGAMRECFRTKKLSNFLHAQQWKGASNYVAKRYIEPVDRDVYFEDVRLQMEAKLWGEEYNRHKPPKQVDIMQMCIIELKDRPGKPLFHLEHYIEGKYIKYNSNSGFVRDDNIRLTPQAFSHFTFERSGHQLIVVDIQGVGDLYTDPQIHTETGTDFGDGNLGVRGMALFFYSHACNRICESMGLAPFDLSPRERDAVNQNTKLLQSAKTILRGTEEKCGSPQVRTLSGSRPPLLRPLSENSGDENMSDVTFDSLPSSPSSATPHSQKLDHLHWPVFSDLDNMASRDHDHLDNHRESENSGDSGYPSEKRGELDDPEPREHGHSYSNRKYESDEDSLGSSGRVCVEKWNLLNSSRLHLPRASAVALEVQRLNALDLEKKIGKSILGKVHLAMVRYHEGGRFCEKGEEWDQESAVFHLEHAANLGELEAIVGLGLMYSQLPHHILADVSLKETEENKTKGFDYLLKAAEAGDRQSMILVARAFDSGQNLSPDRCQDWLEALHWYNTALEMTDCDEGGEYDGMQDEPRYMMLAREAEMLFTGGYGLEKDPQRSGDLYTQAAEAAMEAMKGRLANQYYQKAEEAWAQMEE

[27] = target: T25, PIM-2 (Homo sapiens, UniProt Q9P1W9); test: Millipore kinase panel; format: biochemical; conditions: read-out: % Control
T25 construct: purchased Millipore KinaseProfiler (kinases); Cerep (receptors and ion channels)

[28] = target: T26, SRPK1 (Homo sapiens, UniProt Q96SB4); test: Millipore kinase panel; format: biochemical; conditions: read-out: % Control
T26 construct: purchased Millipore KinaseProfiler (kinases); Cerep (receptors and ion channels)

[29] = target: T27, HIPK2 (Homo sapiens, UniProt Q9H2X6); test: Millipore kinase panel; format: biochemical; conditions: read-out: % Control
T27 construct: purchased Millipore KinaseProfiler (kinases); Cerep (receptors and ion channels)

[30] = target: T28, ULK2 (Homo sapiens, UniProt Q8IYT8); test: Millipore kinase panel; format: biochemical; conditions: read-out: % Control
T28 construct: purchased Millipore KinaseProfiler (kinases); Cerep (receptors and ion channels)

[31] = target: T29, SAPK4 (Homo sapiens, UniProt O15264); test: Millipore kinase panel; format: biochemical; conditions: read-out: % Control
T29 construct: purchased Millipore KinaseProfiler (kinases); Cerep (receptors and ion channels)

[32] = target: T30, MST2 (Homo sapiens, UniProt Q13188); test: Millipore kinase panel; format: biochemical; conditions: read-out: % Control
T30 construct: purchased Millipore KinaseProfiler (kinases); Cerep (receptors and ion channels)

[33] = target: T31, M2 (h) (Homo sapiens, UniProt P08172); test: CEREP binding panel; conditions: antagonist radioligand, read-out: % Inhibition of Control Specific Binding
T31 construct: purchased Millipore KinaseProfiler (kinases); Cerep (receptors and ion channels)

[34] = target: T32, ZIPK (Homo sapiens, UniProt O43293); test: Millipore kinase panel; format: biochemical; conditions: read-out: % Control
T32 construct: purchased Millipore KinaseProfiler (kinases); Cerep (receptors and ion channels)

[35] = target: T33, IGF-1R, ACTIVATED (Homo sapiens, UniProt P08069); test: Millipore kinase panel; format: biochemical; conditions: read-out: % Control
T33 construct: purchased Millipore KinaseProfiler (kinases); Cerep (receptors and ion channels)

[36] = target: T34, 5-HT transporter (h) (Homo sapiens, UniProt P31645); test: CEREP binding panel; conditions: antagonist radioligand, read-out: % Inhibition of Control Specific Binding
T34 construct: purchased Millipore KinaseProfiler (kinases); Cerep (receptors and ion channels)

[37] = target: T35, PIM-1 (Homo sapiens, UniProt P11309); test: Millipore kinase panel; format: biochemical; conditions: read-out: % Control
T35 construct: purchased Millipore KinaseProfiler (kinases); Cerep (receptors and ion channels)
T35 sequence (P11309 whole entry): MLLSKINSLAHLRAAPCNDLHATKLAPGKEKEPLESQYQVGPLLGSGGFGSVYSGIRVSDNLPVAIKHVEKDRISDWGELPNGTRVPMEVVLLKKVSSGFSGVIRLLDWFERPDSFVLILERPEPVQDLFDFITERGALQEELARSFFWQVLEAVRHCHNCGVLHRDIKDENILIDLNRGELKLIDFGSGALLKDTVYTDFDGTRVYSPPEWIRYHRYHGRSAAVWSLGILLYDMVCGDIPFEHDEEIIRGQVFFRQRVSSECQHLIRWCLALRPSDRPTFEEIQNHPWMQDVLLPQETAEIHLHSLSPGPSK

[38] = target: T36, 5-HT5a (h) (Homo sapiens, UniProt P47898); test: CEREP binding panel; conditions: agonist radioligand, read-out: % Inhibition of Control Specific Binding
T36 construct: purchased Millipore KinaseProfiler (kinases); Cerep (receptors and ion channels)

[39] = test system: SKCa channel; test: CEREP binding panel; conditions: 10 μM, antagonist radioligand
[40] = target: T37, CHK2 (Homo sapiens, UniProt O96017); test: Millipore kinase panel; format: biochemical; conditions: read-out: % Control
T37 construct: purchased Millipore KinaseProfiler (kinases); Cerep (receptors and ion channels)

[41] = target: T38, PRKAA1 (Homo sapiens, UniProt Q13131); test: Millipore kinase panel; format: biochemical; conditions: read-out: % Control
T38 construct: purchased Millipore KinaseProfiler (kinases); Cerep (receptors and ion channels)

[42] = target: T39, FGFR2 (Homo sapiens, UniProt P21802); test: Millipore kinase panel; format: biochemical; conditions: read-out: % Control
T39 construct: purchased Millipore KinaseProfiler (kinases); Cerep (receptors and ion channels)

[43] = target: T40, DCAMKL2 (Homo sapiens, UniProt Q8N568); test: Millipore kinase panel; format: biochemical; conditions: read-out: % Control
T40 construct: purchased Millipore KinaseProfiler (kinases); Cerep (receptors and ion channels)

[44] = target: T41, MRCKALPHA (Homo sapiens, UniProt Q5VT25); test: Millipore kinase panel; format: biochemical; conditions: read-out: % Control
T41 construct: purchased Millipore KinaseProfiler (kinases); Cerep (receptors and ion channels)
T41 sequence (Q5VT25 whole entry): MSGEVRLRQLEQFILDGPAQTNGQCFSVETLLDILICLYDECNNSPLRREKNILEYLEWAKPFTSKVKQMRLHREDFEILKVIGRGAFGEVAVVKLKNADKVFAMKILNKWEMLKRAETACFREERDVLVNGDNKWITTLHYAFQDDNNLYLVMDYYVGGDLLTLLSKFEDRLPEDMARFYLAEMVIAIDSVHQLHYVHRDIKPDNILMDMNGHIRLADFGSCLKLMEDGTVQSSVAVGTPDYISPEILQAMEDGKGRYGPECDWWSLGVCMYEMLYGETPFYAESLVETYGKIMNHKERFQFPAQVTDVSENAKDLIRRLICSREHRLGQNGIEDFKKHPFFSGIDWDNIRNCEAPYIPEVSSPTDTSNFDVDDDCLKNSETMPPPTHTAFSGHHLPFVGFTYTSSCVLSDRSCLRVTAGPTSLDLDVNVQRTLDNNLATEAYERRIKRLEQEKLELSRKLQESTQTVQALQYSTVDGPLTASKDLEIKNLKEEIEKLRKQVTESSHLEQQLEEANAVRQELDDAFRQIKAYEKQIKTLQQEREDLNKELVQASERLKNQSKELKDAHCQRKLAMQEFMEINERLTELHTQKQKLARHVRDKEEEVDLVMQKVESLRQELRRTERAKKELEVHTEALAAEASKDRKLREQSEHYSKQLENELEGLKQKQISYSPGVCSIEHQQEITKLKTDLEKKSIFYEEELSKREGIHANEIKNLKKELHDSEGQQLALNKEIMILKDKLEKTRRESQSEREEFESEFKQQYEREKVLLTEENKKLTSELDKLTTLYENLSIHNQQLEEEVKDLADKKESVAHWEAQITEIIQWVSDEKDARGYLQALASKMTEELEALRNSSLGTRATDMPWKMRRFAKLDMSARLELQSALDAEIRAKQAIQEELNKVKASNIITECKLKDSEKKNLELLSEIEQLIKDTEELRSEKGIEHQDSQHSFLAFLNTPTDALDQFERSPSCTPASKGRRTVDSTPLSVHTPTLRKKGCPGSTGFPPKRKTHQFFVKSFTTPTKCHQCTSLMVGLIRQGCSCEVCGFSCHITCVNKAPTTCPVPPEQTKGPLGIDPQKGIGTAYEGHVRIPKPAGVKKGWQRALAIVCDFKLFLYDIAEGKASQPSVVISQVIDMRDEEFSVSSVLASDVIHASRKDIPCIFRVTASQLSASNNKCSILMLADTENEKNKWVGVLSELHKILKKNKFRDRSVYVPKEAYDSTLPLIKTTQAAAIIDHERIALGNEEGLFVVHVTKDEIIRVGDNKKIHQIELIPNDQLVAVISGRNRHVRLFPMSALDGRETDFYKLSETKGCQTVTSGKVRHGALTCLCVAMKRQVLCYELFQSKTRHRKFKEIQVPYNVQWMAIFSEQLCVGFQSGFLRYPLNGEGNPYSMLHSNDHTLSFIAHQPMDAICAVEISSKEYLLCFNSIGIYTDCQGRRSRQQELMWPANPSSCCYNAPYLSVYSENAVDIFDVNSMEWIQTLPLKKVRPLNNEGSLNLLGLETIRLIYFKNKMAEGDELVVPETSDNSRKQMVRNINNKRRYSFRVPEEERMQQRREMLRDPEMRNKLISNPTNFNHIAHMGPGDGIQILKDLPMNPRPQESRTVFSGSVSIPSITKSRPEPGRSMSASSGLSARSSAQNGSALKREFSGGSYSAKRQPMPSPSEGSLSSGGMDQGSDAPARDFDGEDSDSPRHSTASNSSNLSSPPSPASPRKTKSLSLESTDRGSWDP

## O=C1NCCC12CCN(c1c(Cl)cncc1-c1ccc(N3CCOCC3)cc1)CC2 [Compound 44, 8-(3-Chloro-5-(4-morpholin-4-ylphenyl)pyridin-4-yl)-2,8-diazaspiro[4.5]decan-1-one]
[1]
  remaining activity at 1 µM: -22%
[2]
  % Inhibition of Control Specific Binding: 2%
[3]
  remaining activity at 1 µM: 14%
[4]
  inhibition at 10 µM: 5%
[5]
  remaining activity at 1 µM: 22%
[6]
  remaining activity at 1 µM: 4%
[7]
  remaining activity at 1 µM: -6%
[8]
  remaining activity at 1 µM: -5%
[9]
  % Inhibition of Control Specific Binding: -4%
[10]
  remaining activity at 1 µM: 4%
[11]
  inhibition at 10 µM: -3%
[12]
  inhibition at 10 µM: 5%
[13]
  remaining activity at 1 µM: 17%
[14]
  remaining activity at 1 µM: 0%
[15]
  inhibition at 10 µM: -10%
[16]
  remaining activity at 1 µM: -10%
[17]
  remaining activity at 1 µM: -2%
[18]
  inhibition at 10 µM: -3%
[19]
  remaining activity at 1 µM: 5%
[20]
  remaining activity at 1 µM: 14%
[21]
  remaining activity at 1 µM: 17%
[22]
  remaining activity at 1 µM: -7%
[23]
  remaining activity at 1 µM: 10%
[24]
  inhibition at 10 µM: -22%
[25]
  inhibition at 10 µM: -29%
[26]
  remaining activity at 1 µM: -8%
[27]
  remaining activity at 1 µM: 7%
[28]
  remaining activity at 1 µM: -20%
[29]
  remaining activity at 1 µM: 2%
[30]
  remaining activity at 1 µM: 10%
[31]
  remaining activity at 1 µM: -2%
[32]
  remaining activity at 1 µM: 1%
[33]
  inhibition at 10 µM: 24%
[34]
  remaining activity at 1 µM: -10%
[35]
  remaining activity at 1 µM: 3%
[36]
  inhibition at 10 µM: 17%
[37]
  remaining activity at 1 µM: 1%
[38]
  inhibition at 10 µM: 11%
[39]
  % Inhibition of Control Specific Binding: -6%
[40]
  remaining activity at 1 µM: 15%
[41]
  remaining activity at 1 µM: 15%
[42]
  remaining activity at 1 µM: -6%
[43]
  remaining activity at 1 µM: 0%
[44]
  remaining activity at 1 µM: 11%

— PMC4767141, “Discovery of Potent, Orally Bioavailable, Small-Molecule Inhibitors of WNT Signaling from a Cell-Based Pathway Screen” (Journal of Medicinal Chemistry, 2015)
